Measured values taken from publication PMC3990509, “Structures of Trypanosoma brucei Methionyl-tRNA Synthetase with Urea-Based Inhibitors Provide Guidance for Drug Design against Sleeping Sickness” (PLoS Neglected Tropical Diseases, 2014).
“Also recorded” adds a separate entry of the source. Where two headings read alike, the source gives them in different places.

Key:
TbMetRS = molecular target: T1, TbMetRS (Trypanosoma brucei brucei, UniProt Q38C91); assay: Thermal melt of TbMetRS with combinations of ligands (Chem 1433, ATP, AMPPCP, Mg2+); type: binding; details: for change in Tm of TbMetRS in the presence of the nucleotide and Mg2+: compared to TbMetRS only, no inhibitor
T1 construct: hexa-histidine tag (3C protease site) (N, cleaved yes); made in house; host or cells: E. coli
T1 sequence (Q38C91 1-773): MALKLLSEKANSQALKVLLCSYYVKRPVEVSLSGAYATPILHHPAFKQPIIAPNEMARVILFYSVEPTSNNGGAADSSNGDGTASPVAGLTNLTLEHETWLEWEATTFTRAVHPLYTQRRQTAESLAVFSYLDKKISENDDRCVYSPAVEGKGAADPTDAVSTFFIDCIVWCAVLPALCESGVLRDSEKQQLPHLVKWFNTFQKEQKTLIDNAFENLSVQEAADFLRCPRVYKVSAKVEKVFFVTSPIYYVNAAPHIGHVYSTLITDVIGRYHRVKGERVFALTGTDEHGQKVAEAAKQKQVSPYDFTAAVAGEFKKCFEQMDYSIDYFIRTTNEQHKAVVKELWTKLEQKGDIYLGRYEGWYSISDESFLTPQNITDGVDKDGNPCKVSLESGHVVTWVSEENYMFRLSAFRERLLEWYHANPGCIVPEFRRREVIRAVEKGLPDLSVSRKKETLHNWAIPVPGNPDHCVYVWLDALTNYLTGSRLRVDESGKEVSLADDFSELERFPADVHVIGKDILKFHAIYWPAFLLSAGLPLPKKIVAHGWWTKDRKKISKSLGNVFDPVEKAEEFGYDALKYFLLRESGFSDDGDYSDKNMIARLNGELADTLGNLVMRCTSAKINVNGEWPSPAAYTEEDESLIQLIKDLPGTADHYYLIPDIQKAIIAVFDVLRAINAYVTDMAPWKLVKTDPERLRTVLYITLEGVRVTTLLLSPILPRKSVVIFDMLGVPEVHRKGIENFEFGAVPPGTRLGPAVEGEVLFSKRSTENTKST
Description: Thermal melt experiments on TbMetRS in the presence of different combinations of ligands were performed to determine the nature of the interactions between Chem 1433 and ATP when they are bound to TbMetRS. A similar analysis has been used to establish synergism between an inhibitor of human ProRS, halofuginone, and ATP [25]. An increase in Tm of the TbMetRS•1433 complex upon adding ATP may be an indication of synergism between Chem 1433 and ATP in binding. […] Instead, the addition of ATP-Mg^2+ or AMPPCP-Mg^2+ to the complex of the TbMetRS•Chem 1433 complex result in increase of Tm by an average of 1.6°C (n = 4, P<0.02) and 1.2°C (n = 4, P<0.05), respectively, compared to the Tm of TbMetRS•Chem 1433 alone (Figure S4).
(§1) Supplementary file pntd.0002775.s004.pdf: Figure S4 Thermal melting curves of Tb MetRS in the presence of different ligands. TbMetRS (0.1 mg/ml) is incubated in the presence of different ligands as indicated. The incubation temperature of the samples is increased from 20°C to 90°C and the fluorescence signal from the reporter dye (Sypro Orange) monitored. Melting temperatures (Tm) are calculated from the curves as the temperature where the first derivative value is maximal. The average Tm value of TbMetRS in the presence of Chem 1433, ATP and Mg^2+ (purple dash) is 1.6°C higher than the Tm of TbMetRS in the presence of Chem 1433 only (n = 4, P<0.02). The average Tm of TbMetRS in the presence of Chem 1433, AMPPCP and Mg^2+ (black dot) is 1.2°C higher than the Tm of TbMetRS in the presence of Chem 1433 only (n = 4, P<0.05). Changes in Tm of TbMetRS in the presence of ATP and Mg^2+ or AMPPCP and Mg^2+ compared to TbMetRS only are insignificant (P>0.3 and 0.8 respectively). (PDF) Click here for additional data file.
A typical thermal melting curves of TbMetRS in the presence of different ligands.
as §1, with “TbMetRS” for “Supplementary file pntd.0002775.s004.pdf: Figure S4 Thermal melting curves of Tb MetRS in the presence of different ligands. TbMetRS”, “Mg2+” for “Mg^2+”, “P < 0.02).” for “P<0.02).”, “P < 0.05).” for “P<0.05).”, “(P > 0.3” for “(P>0.3”, “respectively).” for “respectively). (PDF) Click here for additional data file.”
(1 picture or pasted object on this page, not shown here)

[1] = molecular target: T2, T. brucei methionyl-tRNA synthetase (TbMetRS) (Trypanosoma brucei brucei, UniProt Q38C91); set-up: method as in PMID 22720744; details: previously reported ABI, used for comparison; read-out: IC50 of the ABI Chem 1312 against TbMetRS; cited from earlier work
T2 construct: hexa-histidine tag (3C protease site) (N, cleaved yes); made in house; host or cells: E. coli
T2 sequence (Q38C91 1-773): T1 sequence (Q38C91 1-773)

T. brucei infection = test system: T. brucei infection; set-up: method as in PMID 22720744; details: administered orally; cited from earlier work
[2] = molecular target: T2, T. brucei methionyl-tRNA synthetase (TbMetRS); assay: T. brucei methionyl-tRNA synthetase aminoacylation assay; type: biochemical; details: for IC50: read-out: IC50 (aminoacylation activity of purified TbMetRS)
Description: Compound IC50s were determined in the T. brucei methionyl-tRNA synthetase aminoacylation assay as previously described, [14] except 10 U/mL of pyrophosphatase was used per reaction.

[3] = test system: T. brucei brucei (bloodstream form strain 427); assay: T. brucei growth inhibition assay; type: cell-based; details: Trypanosoma brucei, read-out: EC50 (growth of T. brucei in cell culture)
Source text: T. brucei brucei (bloodstream form strain 427 from K. Stuart, Seattle BioMed, Seattle, WA) were used for EC50 measurements as previously described, [14].

[4] = set-up: method as in PMID 22720744; details: cited from earlier work
MDR-1 MDCKII = details: cited from earlier work
[5] = test system: Staphylococcus aureus MetRS; set-up: method as in PMID 19015366; details: physiological ATP 2500 µM versus 25 µM; cited from earlier work

| Structure (SMILES) | IC50 [2] | EC50 [3] | further results |
| --- | --- | --- | --- |
| Nc1ncnc2c1ncn2C1OC(COP(=O)(O)OP(=O)(O)CP(=O)(O)O)C(O)C1O (stereo not drawn) [AMPPCP, β,γ-methyleneadenosine 5′-triphosphate] |  |  | change in Tm of TbMetRS in the presence of the nucleotide and Mg2+ (TbMetRS): does not change significantly; also recorded: insignificant |
| Nc1ncnc2c1ncn2[C@@H]1O[C@H](COP(=O)(O)OP(=O)(O)OP(=O)(O)O)[C@@H](O)[C@H]1O [ATP] |  |  | change in Tm of TbMetRS in the presence of the nucleotide and Mg2+ (TbMetRS): does not change significantly; also recorded: insignificant |
| Oc1cc(NCCCNCc2cc(Cl)cc(Cl)c2)nc2ccccc12 [Chem 1312] |  |  | IC50 [1]: 0.008 µM |
| O=C(NCCCNCc1cc(Cl)cc(Cl)c1)Nc1ccccc1 [Chem 1356] | 0.057 µM | 0.357 µM | activity against the parasite in a mouse model (T. brucei infection): suppressive activity; entry into the central nervous system [4]: enter the central nervous system; oral bioavailability [4]: reasonable oral bioavailability; membrane permeability (MDR-1 MDCKII): excellent membrane permeability |
| O=C(NCCCNCc1cc(Cl)cc(Cl)c1)Nc1cccc(O)c1 [Chem 1387] |  | 0.17 µM |  |
| O=C(NCCCNCc1cc(Cl)cc(Cl)c1)Nc1ccccc1O [Chem 1392] |  | 0.21 µM |  |
| COc1cc(Cl)cc(CNCCCNC(=O)Nc2ccccc2)c1 [Chem 1415] | 0.045 µM | 0.267 µM |  |
| O=C(NCCCNCc1cc(Cl)cc(Cl)c1)Nc1ccsc1 [Chem 1433] | 0.028 µM | 0.19 µM | activity against the parasite in a mouse model (T. brucei infection): moderate activity; also recorded: suppressive activity; fold less favorable IC50 than Chem 1312 ([2]; Chem 1433 (UBI) versus Chem 1312 (ABI)): ~3.5 fold; entry into the central nervous system [4]: enter the central nervous system; oral bioavailability [4]: reasonable oral bioavailability; increase of Tm on addition of ATP-Mg2+ to the TbMetRS•Chem 1433 complex (TbMetRS; compared to Tm of TbMetRS•Chem 1433 alone, n = 4, P<0.02, TbMetRS 0.1 mg/ml): 1.6 °C; increase of Tm on addition of AMPPCP-Mg2+ to the TbMetRS•Chem 1433 complex (TbMetRS; compared to Tm of TbMetRS•Chem 1433 alone, n = 4, P<0.05, TbMetRS 0.1 mg/ml): 1.2 °C |
| COc1cc(Cl)cc(CNCCCNC(=O)Nc2ccsc2)c1 [Chem 1444] | 0.019 µM | 0.15 µM |  |
| CCOc1c(I)cc(Cl)cc1CNCCCNC(=O)Nc1ccsc1 [Chem 1469] | > 10 µM | 9.55 µM |  |
| C=CCc1cc(Cl)cc(CNCCCNC(=O)Nc2ccsc2)c1O [Chem 1472] | 0.198 µM | 5.26 µM |  |
| O=C(NCCCNCc1cc(Cl)cc(I)c1O)Nc1ccsc1 [Chem 1473] | 0.316 µM | 3.84 µM |  |
| C=CCOc1c(CC=C)cc(Cl)cc1CNCCCNC(=O)Nc1ccsc1 [Chem 1475] | 1.23 µM | 1.16 µM |  |
| C=CCc1cc(Cl)cc(CNCCCNC(=O)Nc2ccsc2)c1OCc1ccccc1 [Chem 1476] | 1.68 µM | 1.12 µM |  |
| C#Cc1cccc(CNCCCNC(=O)Nc2ccsc2)c1 [Chem 1478] | 0.096 µM | 1.06 µM |  |
| O=C(NCCCNCc1cc(Cl)sc1Cl)Nc1ccsc1 [Chem 1509] | 0.324 µM | 2.79 µM |  |
| Cc1sc2ccccc2c1CNCCCNC(=O)Nc1ccsc1 [Chem 1540] | 1.36 µM | 9.41 µM |  |
| C=C(F)c1sc(CNCCCNc2cc(O)c3ccccc3n2)c(C)c1Br [REP8839] |  |  | fold lower IC50 at 2500 µM ATP than at 25 µM ATP [5]: 30- to 50 fold |
